# Test results published in patent US5994365A, “Substituted diazaanthracene compounds having pharmaceutical utility” (Diazans Limited, priority 1998, dated 1999).
# Assays:
# S. aureus ATCC 25923 = test: Microbroth dilution assay of antimicrobial susceptibility (MIC); type: cell-based, Staphylococcus aureus; conditions: microdilution, CAMHB, 37° C., 18 hrs
# Experimental: It is described below, using E. coli ATCC® 25922, S. aureus ATCC® 25923, and P. aeruginosa ATCC® 27853. Prepare 0.0128 g DAA in 10 mL dH2 O (or 95% EtOH, methanol or DMSO if H2 O insoluble)=1280 μg/mL (stock solution). Dilute DAA stock solution 1:10 with CAMHB (Cation-Adjusted Mueller Hinton Broth): 0.5 mL DAA stock solution+4.5 mL CAMHB=128 μg/mL (DAA working solution). Pipette 100 μl of sterile CAMHB per well into columns 2-12 of rows A-G using Eppendorf repeater pipette. Pipette 100 μl per well of sterile-filtered DAA working solution into columns 1 and 2 of rows A, C, E, G using Jensen electric pipette. Mix and transfer 100 μl from column 2 to 3 of rows A, C, E, G using Jensen pipette. Repeat to column 12 then discard 100 μl from column 12. Rows B, D and F are positive growth control lanes for each organism and contain only CAMHB and the organism--no DAA. Row H is the media additive control lane, if necessary (e.g. MeOH, EtOH, DMSO etc.). The concentration of the media additive is obtained by doing a 1:10 dilution of the additive with CAMHB (0.5 mL additive+4.5 mL CAMHB). Row G is considered to be "negative growth control" and is loaded with only CAMHB and the DAA. Inoculate 0.5 mL TSB (Trypticase Soy Broth) tubes with 3 single colonies each of E. coli, S. aureus, and P. Aeruginosa from TSA plates using sterile needle. Incubate @ 37° C. for 4-6 hr. Measure out 100 mL CAMHB using the sterile 100 mL volumetric flask. Pour the excess into a sterile reagent reservoir. Pipette 0.5 mL and discard, leaving 99.5 mL in each of the 3-Erlenmeyer flasks. Set aside. Use the excess CAMHB for the 1:10 dilution of inoculum: 0.5 mL inoculum+4.5 mL CAMHB. Perform a 1:200 dilution of inoculum: 0.5 mL of 1:10 diluted inoculum+99.5 mL CAMHB from previous step. Pipette 100 μl (using Eppendorf repeater pipette) E. coli into each well in columns 1-12 of rows A and B and columns 1-4 of row H (if media additive control lane necessary). Pipette 100 μl P. aeruginosa into each well in columns 1-12 of rows C and D and columns 5-8 of row H (if media additive control lane is necessary). Pipette 100 μl S. aureus into each well in columns 1-12 of rows E and F and columns 9-12 of row H (if media additive control lane is necessary). Incubate microtiter plates @ 37° C. for 18 hrs. The lowest concentration of antimicrobial agent that results in significant inhibition of visible growth represents the MIC (Minimal Inhibitory Concentration).
# C. neoformans ATCC 90112 = test: In vitro antifungal susceptibility assay adapted from NCCLS (MIC); type: cell-based, Cryptococcus neoformans; conditions: RPMI-1640
# Experimental: (§1) Compounds of the invention also display antifungal activities. […] Using C. albicans ATCC® 90028, C. neoformans ATCC® 90112 and T. glabrata ATCC® 90030, the protocol is performed as follows:
# (§2) Prepare 0.0128 g DAA in 10 mL dH2 O (or other if H2 O insoluble)=1280 μg/mL (stock solution). Dilute DAA stock solution 1:10 with RPMI-1640: 0.5 mL DAA stock solution+4.5 mL RPMI-1640=128 μg/mL (DAA working solution).
# (§3) Inoculate rows A-H, columns 2-12 with 100 μl of RPMI-1640 using Eppendorf repeater pipette. Inoculate rows A-C columns 1 and 2 with 100 μl of 1st antibiotic (i.e. DAA-1) using electronic pipette. Inoculate rows E-G columns 1 and 2 with 100 μl of 2nd antibiotic (i.e. DAA-2) using electronic pipette. […] Plate is now ready for fungal inocula, which involves pipetting 100 μl of the inocula into all wells in rows A-C columns 1-12 and rows E-G columns 1-12. […]
# (§4) Five colonies greater than 1 mm in diameter are suspended in a spectrophotometer cuvette containing 5 mL of sterile, 0.85% saline (colonies are obtained from 24 hrs. old Candida and Torulopsis cultures, while Cryptococcus colonies are chosen from 48 hrs. old cultures). Spectrophotometer is set to read % transmission at a wavelength of 530 nm, and is standardized using two cuvettes. […] Fungal inoculum is now prepared and ready to be introduced to microplates. […]
# T. glabrata ATCC 90030 = test: as above; type: cell-based, Torulopsis glabrata; conditions: RPMI-1640
# Experimental: as §1, §2, §3, §4
substance,measurement,setting,value
"10,10'-bis(3,6-dimethyl-5,10-dihydro-1,8-diazaanthracen-5-one) and 5,5'-bis(3,6-dimethyl-5,10-dihydro-1,8-diazaanthracen-10-one) [Example 15]",MIC,S. aureus ATCC 25923,0.0625 µg/mL
same,MIC,C. neoformans ATCC 90112,16 µg/mL
same,MIC,T. glabrata ATCC 90030,16 µg/mL
